What was measured:
confluent BAEC [1] = assay: Total β-galactosidase expression measured fluorometrically in cell lysates; assay type: cell-based, bovine; conditions: for enhancement of β-galactosidase expression / gene transfer: lipofection; for increase in total β-galactosidase expression over transfection with plasmid alone: plasmid precomplexed with peptide, lipofectamine
Procedure: (§1) Bovine aortic endothelial cells (BAEC) (passage<10) are grown to confluence, passed to a 6-well culture dish at a split ratio of 1:3, and then grown to confluence as described by Subramanian, A. and Diamond, S. L. Tissue Engineering 3, 39-52, 1997. Growth medium is Dulbecco's modified Eagle's medium (DMEM) containing 10% heat inactivated newborn calf serum, 0.30 mg/ml of glutamine, 150 U/ml penicillin and 0.15 mg/ml streptomycin (GIBCO, Grand Island, N.Y.). Hela cells (Hela S3 ATCC No. CCL 2.2) are grown in DMEM media (Gibco BRL) supplemented with 10% fetal calf serum as described by Ranjan, V. and Diamond, S. L. Biochem. Biophys. Res. Comm. 196, 79, 1993.
(§2) Cationic liposomes (Lipofectamine Reagent, Gibco-BRL), containing a 3:1 by weight mixture of polycationic lipid 2,3-dioleoyloxy-N-[2(sperminecarboxamido)ethyl]-N,N-dimethyl-1 propanaminium trifluoroacetate (DOSPA) and the neutral lipid dioleoyl phosphatidylethanolamine (DOPE) was used in all transfections in accordance with procedures described by Subramanian, A. and Diamond, S. L. Tissue Engineering 3, 39-52, 1997. Pure liposome (10 μl) diluted to 100 μl are added to the DNA/scaffold complex, incubated for 45 minutes. Then 0.8 ml of OPTIMEM media is added to this mixture which is then overlaid on the cells. The cells are incubated for 2 hours at 37 ? C. After two hours, the mixture is aspirated, 4% serum in OPTIMEM media is added, and the cells are allowed to grow for 48 hours. The cells are then fixed and assayed for ? -gal activity. During the transfections, the cells are continuously monitored for cell viability and adhesion.
To assay for ? gal to measure % transfection, cells are stained with XGAL as described by Subramanian, A. and Diamond, S. L. Tissue Engineering 3, 39-52, 1997. The percent of cells stained per field of view is counted using a Zeiss 125M inverted microscope. The count is averaged from at least 4 fields of view for each transfected monolayer. To measure ? -gal expression quantitatively, cell lysates are prepared and tested for ? -gal activity against the fluorogenic substrate, fluorescein di- ? -D-galactopyranoside (FDG, F-1179 Molecular Probes) which is not fluorescent until cleaved to fluorescein monogalactoside and then to fluorescein (excitation/emission: 494/520 nM). For flow cytometry, the trypsinized cell suspension is supplemented with serum, pelleted (100 g) and resuspended in staining medium to approximately 10^7 cells/ml. A 100 μL cell suspension is maintained at 37 ? C and 100 μl of 2 mM FDG maintained at 37 ? C is then added to the cell suspension, mixed rapidly and incubated at 37 ? C for 1 minute. The FDG loading is stopped at the end of 1 minute by adding 1.8 mL of ice-cold staining medium containing 1.5 μM Propidium Iodide and 1 mM PETG. The cells are kept on ice prior to flow cytometer analysis using a Becton Dickinson FACScan system. Unstained BAEC cells allow compensation for autofluorescence. The histogram showing fluorescence/cell to the number of cells is used to calculate the % transfection.

plasmid = assay: Ethidium bromide fluorescence release assay of plasmid condensation; assay type: binding; conditions: electrostatic interactions
From the text: Several different cationic scaffolds that are rich in amine suitable for conjugation reactions and which mediate electrostatic complexation or condensation with plasmid are used. These scaffolds can include: SV40 T antigen NLS (SVT=CGYGPKKKRKVGG (SEQ ID NO:5)), a mutated version of the SV40 T antigen NLS (muT=VKKGKCRPGKGYG (SEQ ID NO:2)), poly-L-lysine (MW 1, 4, and 30-70 kDa), histone H1, and hydrophilic amine-terminated dendrimers (87,340 MW) of small size (8.4 nm) available through Polysciences, Inc. (Warrington, Pa.). These scaffolds are tested for DNA condensation using a fluorescence quench assay of ethidium bromide labeled plasmid. Synthetic peptides with a C-terminus Gly-Gly-Gly-Cys-COOH (SEQ ID NO:19) linked to M9 or KNS are grafted at 1:1 to 3:1 to the activated amine-rich scaffolds. The crosslinker succinimidyl 4-(N-maleimidomethyl)cyclohexane-1 (SMCC, Pierce) is added at a final concentration of 10 mM (at 10% DMSO) to 100 μg amine rich scaffold (pH 7.2, 25 ? C for 2 hours) to react the SMCC NHS-ester to the primary amine of the scaffold. Excess SMCC and DMSO are removed by sephadex G-15 chromatography. The activated scaffold is conjugated with equimolar or 2 to 3-fold excess of the KNS or M9 peptide at 4 μC (16 hours) by maleimide reaction with the SH moiety of the C-terminal cysteine. Individual reaction species are isolated by electroelution or FLPC. […]

confluent BAEC [2] = assay: Flow cytometry (FDG) of confluent BAEC lipofected with pCMVβgal ± peptides; assay type: cell-based, bovine; conditions: 1 μg plasmid
Procedure: as §1
as §2, with “The cells are incubated for 2 hours at 37 ? C. After two hours, the mixture is aspirated, 4% serum in OPTIMEM media is added, and the cells are allowed to grow for 48 hours. The cells are then fixed and assayed for ? -gal activity.” left out, “adhesion. […]” for “adhesion.”

| Substance | enhancement of β-galactosidase expression / gene transfer (confluent BAEC [1]) | increase in total β-galactosidase expression over transfection with plasmid alone (confluent BAEC [1]) [fold] | plasmid condensation (plasmid) | percent transfection: percent of cells with fluorescence ≧100 f.u. (confluent BAEC [2]) [%] |
| --- | --- | --- | --- | --- |
| VKKGKCRPGKGYG [ScT] | little benefit | 4 | condenses plasmid effectively | – |
| CGYGPKKKRKVGG [SV40 T-antigen consensus NLS, reference compound] | A similar level of increase | – | – | – |
| NQSSNFGPMKGGNFGGRSSGPYGGGGQYFAKPRNQGGY-GGGC (NQSSNFGPMKGGNFGGRSSGPYGGGGQYFAKPRNQGGYGGGC; C-terminal GGGC extension) [M9 peptide] | – | 18.3 | – | 55 |
| polylysine [reference compound] | A similar level of increase | – | – | – |

Reference: patent US7662629B2, “Peptide scaffolds for transfer of molecules into eukaryotic cells” (Trustees of the University of Pennsylvania, priority 1998, dated 2010)
